According to publication PMC4504471, “Cilostazol Induces PGI2 Production via Activation of the Downstream Epac-1/Rap1 Signaling Cascade to Increase Intracellular Calcium by PLCε and to Activate p44/42 MAPK in Human Aortic Endothelial Cells” (PLoS ONE, 2015):

Key:
[1] = target: T1, PDE3B (Homo sapiens, UniProt Q13370); assay: SPR (Biacore S51), competition with Epac-1 peptides on immobilized PDE3B peptide; type: binding; conditions: read-out: % maximal inhibition
[2] = target: T1, PDE3B; assay: SPR (Biacore S51), direct binding and competition with Epac-1 peptides; cAMP rise in HAECs lost on PDE3B siRNA; conditions: read-out: % maximal inhibition

T1 sequence (Q13370 1-25): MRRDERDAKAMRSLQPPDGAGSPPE
T1 sequence (O95398 whole entry partner): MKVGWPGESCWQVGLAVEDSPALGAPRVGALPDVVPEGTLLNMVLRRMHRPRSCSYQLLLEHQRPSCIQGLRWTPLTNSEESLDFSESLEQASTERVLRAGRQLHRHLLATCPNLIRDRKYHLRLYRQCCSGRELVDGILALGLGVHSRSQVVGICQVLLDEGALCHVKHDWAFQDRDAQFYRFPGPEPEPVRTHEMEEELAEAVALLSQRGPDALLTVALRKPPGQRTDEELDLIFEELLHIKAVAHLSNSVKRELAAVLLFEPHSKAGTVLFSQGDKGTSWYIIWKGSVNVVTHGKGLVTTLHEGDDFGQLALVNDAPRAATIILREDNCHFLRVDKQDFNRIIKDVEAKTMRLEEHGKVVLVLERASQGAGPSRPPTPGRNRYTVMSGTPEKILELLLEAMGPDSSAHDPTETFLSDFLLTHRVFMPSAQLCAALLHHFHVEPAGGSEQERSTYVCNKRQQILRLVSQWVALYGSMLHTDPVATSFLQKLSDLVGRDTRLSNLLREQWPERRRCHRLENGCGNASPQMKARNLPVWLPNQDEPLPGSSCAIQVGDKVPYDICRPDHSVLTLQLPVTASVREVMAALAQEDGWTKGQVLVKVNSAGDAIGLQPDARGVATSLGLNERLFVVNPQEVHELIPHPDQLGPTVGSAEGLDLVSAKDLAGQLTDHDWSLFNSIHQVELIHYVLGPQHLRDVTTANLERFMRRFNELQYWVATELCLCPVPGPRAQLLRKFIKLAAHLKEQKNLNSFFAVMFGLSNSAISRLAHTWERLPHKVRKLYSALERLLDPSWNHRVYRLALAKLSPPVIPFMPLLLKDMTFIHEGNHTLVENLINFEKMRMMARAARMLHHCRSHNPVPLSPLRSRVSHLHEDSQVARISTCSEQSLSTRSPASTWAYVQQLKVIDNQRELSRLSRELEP

| Emax [2] | SMILES | Emax [1] |
| --- | --- | --- |
|  | CN(C(=O)CCCOc1ccc2[nH]c(=O)ccc2c1)C1CCCCC1 [cilostamide] | 63% |
| 70% | O=C1CCc2cc(OCCCCc3nnnn3C3CCCCC3)ccc2N1 [cilostazol, 6-[4-(1-cyclohexyl-1H-tetrazol-5-yl)butyloxy]-3,4-dihydroquinolin-2-(1H)-one] |  |
|  | Cc1[nH]c(=O)c(C#N)cc1-c1ccncc1 [milrinone] | 60% |
